Reference: patent publication US20120165310A1, “ETHER DERIVATIVES OF BICYCLIC HETEROARYLS” (NOVARTIS AG, priority 2009, published 2012)

Target: T1, IGF-1R (Homo sapiens, UniProt P08069)
T1 construct: expressed in transfected cells; host or cells: Hek293 (Hek293-IGF1R)
Test: Cellular IGF-1R assay: capture ELISA (MSD) of receptor phosphorylation in Hek293 cells
Type: cell-based
Details: Hek293-IGF1R cells, 1 h pre-incubation, 10 min IGF stimulation, pIGF1R capture ELISA
How it was run: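 IC50 from 4-parameter fit of IGF1R phosphorylation, normalised to IGF-stimulated and unstimulated controls, measured by MSD capture ELISA on lysates. Hek293-IGF1R cells in starvation medium got compound 1 h (top 10 μM, 3-fold steps, 0.1% DMSO) before a 10 min pulse of 1.0 ng/μL IGF.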

T1 sequence (P08069 31-1367): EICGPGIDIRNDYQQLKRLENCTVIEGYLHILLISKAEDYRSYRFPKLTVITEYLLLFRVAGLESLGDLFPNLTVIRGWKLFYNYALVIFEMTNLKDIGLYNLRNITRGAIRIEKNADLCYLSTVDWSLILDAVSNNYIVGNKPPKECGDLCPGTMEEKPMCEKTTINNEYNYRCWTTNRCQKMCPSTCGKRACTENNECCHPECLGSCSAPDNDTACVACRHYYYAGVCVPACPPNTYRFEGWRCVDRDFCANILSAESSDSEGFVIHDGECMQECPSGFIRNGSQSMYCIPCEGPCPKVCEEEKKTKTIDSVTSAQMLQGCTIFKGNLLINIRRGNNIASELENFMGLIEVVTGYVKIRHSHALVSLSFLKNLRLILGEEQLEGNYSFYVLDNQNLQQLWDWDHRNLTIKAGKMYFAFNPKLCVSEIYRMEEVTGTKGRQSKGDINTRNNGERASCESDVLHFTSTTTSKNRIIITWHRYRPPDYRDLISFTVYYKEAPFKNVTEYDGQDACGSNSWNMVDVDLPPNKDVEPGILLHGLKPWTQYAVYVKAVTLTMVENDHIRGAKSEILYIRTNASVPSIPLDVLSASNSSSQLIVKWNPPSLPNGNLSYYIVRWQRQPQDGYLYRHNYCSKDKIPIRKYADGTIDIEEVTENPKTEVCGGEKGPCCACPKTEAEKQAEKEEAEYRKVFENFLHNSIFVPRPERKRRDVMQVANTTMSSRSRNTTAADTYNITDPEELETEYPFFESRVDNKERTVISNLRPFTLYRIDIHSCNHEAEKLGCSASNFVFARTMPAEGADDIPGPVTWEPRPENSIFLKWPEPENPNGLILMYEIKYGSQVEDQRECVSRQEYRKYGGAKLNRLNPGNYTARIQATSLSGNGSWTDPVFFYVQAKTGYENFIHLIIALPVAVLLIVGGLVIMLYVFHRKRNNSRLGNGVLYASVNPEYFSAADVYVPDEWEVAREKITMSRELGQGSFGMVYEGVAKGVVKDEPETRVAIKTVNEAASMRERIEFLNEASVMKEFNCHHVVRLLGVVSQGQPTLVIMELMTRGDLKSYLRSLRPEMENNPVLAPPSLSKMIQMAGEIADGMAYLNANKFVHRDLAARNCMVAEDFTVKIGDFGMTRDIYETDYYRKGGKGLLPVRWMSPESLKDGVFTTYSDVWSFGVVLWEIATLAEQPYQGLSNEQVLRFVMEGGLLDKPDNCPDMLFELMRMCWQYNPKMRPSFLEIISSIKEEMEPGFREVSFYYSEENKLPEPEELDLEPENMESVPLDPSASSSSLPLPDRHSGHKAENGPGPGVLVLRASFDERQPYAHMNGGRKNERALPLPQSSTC

IC50 [nM] | Compound
195 | Nc1ncnc2c1c(-c1cccc(OCC3CCCCO3)c1)cn2C1CC(CN2CCCC2C(O)C(F)(F)F)C1 [Example 120, (1S)-1-((2S)-1-(((1S,3R)-3-(4-amino-5-(3-((tetrahydro-2H-pyran-2-yl)methoxy)phenyl)-7H-pyrrolo[2,3-d]pyrimidin-7-yl)cyclobutyl)methyl)pyrrolidin-2-yl)-2,2,2-trifluoroethanol]
8 | CC1(C(N)=O)CCCN1CC1CC(n2cc(-c3cccc(OCC45CCC(CC4)O5)c3)c3c(N)ncnc32)C1 [Example 101, (S)-1-(((1S,3R)-3-(5-(3-(7-oxabicyclo[2.2.1]heptan-1-ylmethoxy)phenyl)-4-amino-7H-pyrrolo[2,3-d]pyrimidin-7-yl)cyclobutyl)methyl)-2-methylpyrrolidine-2-carboxamide]
303 | Nc1ncnc2c1c(-c1cccc(OCC34CCC(CC3)O4)c1)cn2[C@H]1C[C@@H](N2CC3CC2CN3CCO)C1 (relative stereo) [Example 174, 2-[5-(cis-3-{4-amino-5-[3-(7-oxa-bicyclo[2.2.1]hept-1-ylmethoxy)-phenyl]-pyrrolo[2,3-d]pyrimidin-7-yl}cyclobutyl)-2,5-diaza-bicyclo[2.2.1]hept-2-yl]-ethanol]
90 to 219 | Nc1ncnc2c1c(-c1cccc(OC[C@@H]3CCCO3)c1)cn2[C@H]1C[C@@H](CN2CCC(F)(F)CC2)C1 [Example 16, cis-7-[3-(4,4-Difluoro-piperidin-1-ylmethyl)-cyclobutyl]-5-{3-[(S)-1-(tetrahydrofuran-2-yl)methoxy]-phenyl}-7H-pyrrolo[2,3-d]pyrimidin-4-ylamine]
32 to 37 | CC1(C)CCC(COc2cccc(-c3cn([C@H]4C[C@@H](CN5CCC(F)(F)CC5)C4)c4ncnc(N)c34)c2)O1 (relative stereo) [Example 53, 7-[cis-3-(4,4-difluoro-piperidin-1-ylmethyl)-cyclobutyl]-5-[3-(5,5-dimethyl-tetrahydro-furan-2-ylmethoxy)-phenyl]-7H-pyrrolo[2,3-d]pyrimidin-4-ylamine]
< 4 | CC1(C)CCC(COc2cccc(-c3cn([C@H]4C[C@H](CN5CCC[C@H]5C(N)=O)C4)c4ncnc(N)c34)c2)O1 (stereo partly drawn) [Example 71, (S)-1-(trans-3-{4-amino-5-[3-(5,5-dimethyl-tetrahydro-furan-2-ylmethoxy)-phenyl]-pyrrolo[2,3-d]pyrimidin-7-yl}-cyclobutylmethyl)-pyrrolidine-2-carboxylic acid amide]
26 | CC1(C)CCC(COc2cccc(-c3cn([C@H]4C[C@H](CN5CC(O)C5)C4)c4ncnc(N)c34)c2)O1 (relative stereo) [Example 48, 1-(trans-3-{4-amino-5-[3-(5,5-dimethyl-tetrahydro-furan-2-ylmethoxy)-phenyl]-pyrrolo[2,3-d]pyrimidin-7-yl}-cyclobutylmethyl)-azetidin-3-ol]
160 | Nc1ncnc2c1c(-c1cccc(OCC34CCC(CC3)O4)c1)cn2C1CCC(O)(CNC2CC2)CC1 [Example 117, (1R,4R)-4-(5-(3-(7-oxabicyclo[2.2.1]heptan-1-ylmethoxy)phenyl)-4-amino-7H-pyrrolo[2,3-d]pyrimidin-7-yl)-1-((cyclopropylamino)methyl)cyclohexanol]
6 | NC(=O)[C@@H]1[C@H]2CC[C@H](C2)N1CC1CC(n2cc(-c3cccc(OCC45CCC(CC4)O5)c3)c3c(N)ncnc32)C1 (stereo partly drawn) [Example 104, (1R,3S,4S)-2-(((1S,3R)-3-(5-(3-(7-oxabicyclo[2.2.1]heptan-1-ylmethoxy)phenyl)-4-amino-7H-pyrrolo[2,3-d]pyrimidin-7-yl)cyclobutyl)methyl)-2-azabicyclo[2.2.1]heptane-3-carboxamide]
36 | Nc1ncnc2c1c(-c1cccc(OC[C@@H]3CCCO3)c1)cn2[C@H]1C[C@@H](CN2CCS(=O)(=O)CC2)C1 [Example 4, cis-7-(3-[(1,1-dioxidothiomorpholin-4-yl)methyl]cyclobutyl}-5-{3-[(2S)-tetrahydrofuran-2-ylmethoxy]phenyl}-7H-pyrrolo[2,3-d]pyrimidin-4-amine]
9 | Nc1ncnc2c1c(-c1cccc(OCC34CCC(CC3)O4)c1)cn2[C@H]1C[C@@H](CN2CCC(O)CC2)C1 (relative stereo) [Example 184, 1-(cis-3-{4-Amino-5-[3-(7-oxa-bicyclo[2.2.1]hept-1-ylmethoxy)-phenyl]-pyrrolo[2,3-d]pyrimidin-7-yl}-cyclobutylmethyl)-piperidin-4-ol]
308 | CC(=O)N[C@H]1C[C@@H](n2cc(-c3cccc(OCC45CCC(CC4)O5)c3)c3c(N)ncnc32)C1 (relative stereo) [Example 223, N-(cis-3-{4-amino-5-[3-(7-oxa-bicyclo[2.2.1]hept-1-ylmethoxy)-phenyl]-pyrrolo[2,3-d]pyrimidin-7-yl}-cyclobutyl)-acetamide]
33 | CS(=O)(=O)N1CCN([C@H]2C[C@@H](n3cc(-c4cccc(OCC56CCC(CC5)O6)c4)c4c(N)ncnc43)C2)CC1 (relative stereo) [Example 171, 7-[cis-3-(4-methanesulfonyl-piperazin-1-yl)-cyclobutyl]-5-[3-(7-oxa-bicyclo[2.2.1]hept-1-ylmethoxy)-phenyl]-7H-pyrrolo[2,3-d]pyrimidin-4-ylamine]
53 | Nc1ncnc2c1c(-c1cccc(OCC34CCC(CC3)O4)c1)cn2C1CC(O)(CN2CCC(O)C2)C1 (single isomer, unassigned) [Example 204]
16 | COC(=O)NCC1CC(n2cc(-c3cccc(OCC45CCC(CC4)O5)c3)c3c(N)ncnc32)C1 (stereo not shown) [Example 161, (3-{4-amino-5-[3-(7-oxa-bicyclo[2.2.1]hept-1-ylmethoxy)-phenyl]-pyrrolo[2,3-d]pyrimidin-7-yl}-cyclobutylmethyl)-carbamic acid methyl ester]
397 | Nc1ncnc2c1c(-c1cccc(OCC34CCC(CC3)O4)c1)cn2C1CCN(C2COC2)CC1 [Example 118, 5-(3-(7-oxabicyclo[2.2.1]heptan-1-ylmethoxy)phenyl)-7-(1-(oxetan-3-yl)piperidin-4-yl)-7H-pyrrolo[2,3-d]pyrimidin-4-amine]
345 | 7-[cis-3-(4-methyltetrazoyl-1-ylmethyl)-cyclobutyl]-5-3-(7-oxa-bicyclo[2.2.1]hept-1-ylmethoxy)-phenyl]-7H-pyrrolo[2,3-d]pyrimidin-4-ylamine [Example 179]
478 | NC[C@]1(O)C[C@H](n2cc(-c3cccc(OCC45CCC(CC4)O5)c3)c3c(N)ncnc32)C1 [Example 201]
175 | NC[C@]1(O)C[C@@H](n2cc(-c3cccc(OCC45CCC(CC4)O5)c3)c3c(N)ncnc32)C1 [Example 208, (Z)-1-Aminomethyl-3-{4-amino-5-[3-(7-oxa-bicyclo[2.2.1]hept-1-ylmethoxy)-phenyl]-pyrrolo[2,3-d]pyrimidin-7-yl}-cyclobutanol]
345 | Nc1ncnc2c1c(-c1cccc(OCC3CCCCO3)c1)cn2C1CC(CN2CC[C@@H](F)C2)C1 (stereo partly drawn) [Example 27, 7-[3-((R)-3-fluoro-pyrrolidin-1-ylmethyl)-cyclobutyl]-5-[3-(tetrahydro-pyran-2-ylmethoxy)-phenyl]-7H-pyrrolo[2,3-d]pyrimidin-4-ylamine]
15 | CC1(C)CCC(COc2cccc(-c3cn([C@H]4C[C@@H](CN5CCS(=O)(=O)CC5)C4)c4ncnc(N)c34)c2)O1 (single isomer, unassigned) [Example 67]
101 | CN1CCN([C@H]2CC[C@@H](n3cc(-c4cccc(OCC56CCC(CC5)O6)c4)c4c(N)ncnc43)CC2)CC1 [Example 109, 5-(3-(7-oxabicyclo[2.2.1]heptan-1-ylmethoxy)phenyl)-7-((1S,4S)-4-(4-methylpiperazin-1-yl)cyclohexyl)-7H-pyrrolo[2,3-d]pyrimidin-4-amine]
201 | Nc1ncnc2c1c(-c1cccc(OCC34CCC(CC3)O4)c1)cn2[C@H]1C[C@](O)(CN2CC(O)C2)C1 [Example 199, (Z)-1-(3-{4-Amino-5-[3-(7-oxa-bicyclo[2.2.1]hept-1-ylmethoxy)-phenyl]-pyrrolo[2,3-d]pyrimidin-7-yl}-1-hydroxy-cyclobutylmethyl)-azetidin-3-ol]
52 | CC1(C)CCC(COc2cccc(-c3cn([C@H]4C[C@@H](CN5CCC(F)CC5)C4)c4ncnc(N)c34)c2)O1 (single isomer, unassigned) [Example 74, 5-[3-(5,5-dimethyl-tetrahydro-furan-2-ylmethoxy)-phenyl]-7-[cis-3-(4-fluoro-piperidin-1-ylmethyl)-cyclobutyl]-7H-pyrrolo[2,3-d]pyrimidin-4-ylamine]
39 to 52 | CC1(C)CCC(COc2cccc(-c3cn(C4CC(CN5CC(F)C5)C4)c4ncnc(N)c34)c2)O1 (stereo not drawn) [Example 40, 5-(cis-3-((5,5-dimethyltetrahydrofuran-2-yl)methoxy)phenyl)-7-(3-((3-fluoroazetidin-1-yl)methyl)cyclobutyl)-7H-pyrrolo[2,3-d]pyrimidin-4-amine]
271 | Nc1ncnc2c1c(-c1cccc(OCC34CCC(CC3)O4)c1)cn2[C@H]1CC[C@H](c2cnco2)CC1 [Example 151, 5-(3-(7-oxabicyclo[2.2.1]heptan-1-ylmethoxy)phenyl)-7-((1R,4S)-4-(oxazol-5-yl)cyclohexyl)-7H-pyrrolo[2,3-d]pyrimidin-4-a mine]
5 | NC(=O)[C@@H]1CCCN1C[C@H]1C[C@H](n2cc(-c3cccc(OCC45CCC(CC4)O5)c3)c3c(N)ncnc32)C1 [Example 78, (S)-1-(trans-3-{4-amino-5-[3-(7-oxa-bicyclo[2.2.1]hept-1-ylmethoxy)-phenyl]-pyrrolo[2,3-d]pyrimidin-7-yl}cyclobutylmethyl)-pyrrolidine-2-carboxylic acid amide]
15 | CC1(C)CCC(COc2cccc(-c3cn(C4CC(CN5CCC(F)C5)C4)c4ncnc(N)c34)c2)O1 (single isomer, unassigned) [Example 46]
